Results: US20100112055A1, “MICROPOROUS FILM AND PREPARATION AND USE THEREOF” (NATIONAL TAIWAN UNIVERSITY, priority 2008, published 2010)

Assay: Pharmacokinetic study in vivo, plasma theophylline by HPLC
Details: male, rabbit, rabbits, intravenous injection, n = 5
Experimental: The male rabbits were used as an animal model in this invention. Each rabbit was intravenous injection of theophylline solution, orally administered an uncoated theophylline core tablet (TH-Lac) and a coated micropore-controlled release tablet (TH-Lac-A50), respectively. Blood samples were collected at specific time points, and the plasma concentrations of theophylline were analyzed by high-performance liquid chromatography equipped with a reverse-phase column (Hypersil BDS C18, 250×4.6 mm, 5 μm) and a UV spectrophotometer at a wavelength of 272 nm (Shimadzu SPD-6AV). The mobile phase constituted by acetonitrile and 0.2 M acetate buffer solution (pH 4.5) in the ratio of 6.5:93.5% v/v was applied at a flow rate of 1.0 mL/min.

Compound: Cn1c(=O)c2[nH]cnc2n(C)c1=O [IV-TH, theophylline]
- AUC(0-inf): 117 ± 25.9 µg·h/mL
- Cmax: 21200 ± 1990 ng/mL
- MRT: 7.7 ± 1.16 h
- Tmax: 0.25 h
